Assay [1] in a line: Catalytic activity for the hydrolysis of the lipopeptide SNAC by the thioesterase.
A short description of assay [2]: Michaelis-Menten constant for the cyclization of the lipopeptide SNAC by the licC thioesterase.
Assay [3] in a line: Catalytic activity for the cyclization of the lipopeptide SNAC by the surfactin thioesterase.
A short description of assay [4]: Michaelis-Menten constant for the hydrolysis of the lipopeptide SNAC by the licC thioesterase.
Assay [5] is described as follows: Ratio of Michaelis-Menten constant to that of catalytic activity by the licC thioesterase.
A short description of assay [6]: Michaelis-Menten constant for the cyclization of the lipopeptide SNAC by the licC thioesterase; nd = not determined.
Assay [7] is described as follows: Catalytic activity for the hydrolysis of the lipopeptide SNAC by the licC thioesterase.

In the case of `CC[C@H](C)[C@H](NC(=O)[C@@H](CC(C)C)NC(=O)[C@H](CC(=O)O)NC(=O)[C@@H](NC(=O)[C@@H](CC(C)C)NC(=O)[C@H](CC(C)C)NC(=O)[C@H](CCC(N)=O)NC(=O)C[C@@H](C)O)C(C)C)C(=O)SCCNC(C)=O`, the K cat in assay [1] turned out to be 1.57 s⁻¹; in assay [3], 1.77 s⁻¹. Moreover, the Km in assay [2] amounted to 6.83 µM; in assay [4] it was 8.13 µM.

On to `CC[C@H](C)[C@H](NC(=O)[C@@H](CC(C)C)NC(=O)[C@H](CC(=O)O)NC(=O)[C@@H](NC(=O)[C@@H](CC(C)C)NC(=O)[C@H](CC(C)C)NC(=O)[C@H](CCC(N)=O)NC(=O)CCN)C(C)C)C(=O)SCCNC(C)=O`, for which the Ratio in assay [5] turned out to be 17.3. In addition, the Km in assay [4] was 9.41 µM; in assay [6], “Not detected”. For the same compound, the K cat in assay [7] stood at 2.71 s⁻¹.

Consider `CC[C@H](C)[C@H](NC(=O)[C@@H](C)NC(=O)[C@H](CC(=O)O)NC(=O)[C@@H](NC(=O)[C@@H](CC(C)C)NC(=O)[C@H](CC(C)C)NC(=O)[C@H](CCC(N)=O)NC(=O)C[C@@H](C)O)C(C)C)C(=O)SCCNC(C)=O`, for which the values for the Km in assay [2] and in assay [4] were 257 µM and 263 µM, respectively.

Regarding `CC[C@H](C)[C@H](NC(=O)[C@@H](CC(C)C)NC(=O)[C@H](CC(=O)O)NC(=O)[C@H](C)NC(=O)[C@@H](CC(C)C)NC(=O)[C@H](CC(C)C)NC(=O)[C@H](CCC(N)=O)NC(=O)C[C@@H](C)O)C(=O)SCCNC(C)=O`, the figures for the Km in assay [2] and in assay [4] were 9.35 µM and 8.05 µM, respectively.

Take `CC[C@H](C)[C@H](NC(=O)[C@@H](CC(C)C)NC(=O)[C@H](CC(=O)O)NC(=O)[C@@H](NC(=O)[C@@H](CC(C)C)NC(=O)[C@H](CC(C)C)NC(=O)[C@H](C)NC(=O)C[C@@H](C)O)C(C)C)C(=O)SCCNC(C)=O`: the Km in assay [2] was determined as 29.9 µM; in assay [4], 29 µM.

Turning to `CC[C@H](C)[C@H](NC(=O)[C@@H](CC(C)C)NC(=O)[C@H](CC(=O)O)NC(=O)[C@@H](NC(=O)[C@@H](C)NC(=O)[C@H](CC(C)C)NC(=O)[C@H](CCC(N)=O)NC(=O)C[C@@H](C)O)C(C)C)C(=O)SCCNC(C)=O`, the Km in assay [2] was 5.1 µM; in assay [4] it was 4.86 µM.

Consider `CC[C@H](C)[C@H](NC(=O)[C@@H](CC(C)C)NC(=O)[C@H](C)NC(=O)[C@@H](NC(=O)[C@@H](CC(C)C)NC(=O)[C@H](CC(C)C)NC(=O)[C@H](CCC(N)=O)NC(=O)C[C@@H](C)O)C(C)C)C(=O)SCCNC(C)=O`, for which the Michaelis-Menten constant (Km) in assay [4] was determined as 8.17 µM.

On to `CC[C@H](C)[C@H](NC(=O)[C@@H](CC(C)C)NC(=O)[C@H](CC(=O)O)NC(=O)[C@@H](NC(=O)[C@@H](CC(C)C)NC(=O)[C@H](C)NC(=O)[C@H](CCC(N)=O)NC(=O)C[C@@H](C)O)C(C)C)C(=O)SCCNC(C)=O`, for which the Km in assay [2] came out at 15.2 µM; in assay [4] it was 16.9 µM.

`CC(=O)NCCSC(=O)[C@H](C)NC(=O)[C@@H](CC(C)C)NC(=O)[C@H](CC(=O)O)NC(=O)[C@@H](NC(=O)[C@@H](CC(C)C)NC(=O)[C@H](CC(C)C)NC(=O)[C@H](CCC(N)=O)NC(=O)C[C@@H](C)O)C(C)C`: the Km in assay [4] stood at 191 µM.

Turning to `CC[C@H](C)[C@H](NC(=O)[C@@H](CC(C)C)NC(=O)[C@H](CC(=O)O)NC(=O)[C@@H](NC(=O)[C@@H](CC(C)C)NC(=O)[C@H](CC(C)C)NC(=O)[C@H](CCC(N)=O)NC(=O)C[C@H](C)O)C(C)C)C(=O)SCCNC(C)=O`, the Ratio in assay [5] is 19.5. The values for the Km in assay [4] and in assay [6] were 12 µM and “Not detected”, respectively. In assay [7], this compound came in with a K cat of 3.89 s⁻¹.

By Km is commonly meant the concentration of substrate that gives half-maximal velocity.

These data come from ChEMBL document CHEMBL1145252, “Macrolactonization catalyzed by the terminal thioesterase domain of the nonribosomal peptide synthetase responsible for lichenysin biosynthesis” (Bioorg Med Chem Lett, 2005).
